Here are results for nine compounds from patent publication US20100093776A1, “Organic Compounds and Their Uses” (Novartis AG, priority 2006, published 2010).

The test system of test [1] is RNA polymerase II CTD serine2 phosphorylation in Hep3B cells. As to the kind of experiment: H5 (Ser2) Ab High Content Screen: RNA polymerase II CTD serine2 phosphorylation Assay. Conditions: Homo sapiens, compounds for 2 hours, H5 antibody nuclear staining. It counts as cell-based. The protocol:
H5 (also referred as Ser2) Ab High Content Screen: RNA polymerase II CTD serine2 phosphorylation Assay
1. Cells are plated into 384 well plates: 30 μl of Hep3B cells (4,000 cells/30 μl) in DMEM with 3% FBS are plated into wells of a tissue culture treated clear bottomed 384 well plate. Cells are allowed to adhere during an overnight incubation.
2. Cells are treated with compounds for two hours: 10 μl of DMEM with 3% FBS is added to each well with a final concentration of DMSO equal to 1%. Cells are incubated with compounds for 2 hours.
3. Cells are fixed and permeabilized. Cells are washed with 30 mM HEPES pH=7.3 then fixed in 4% paraformaldehyde in 30 mM HEPES pH=7.3 for one hour at room temperature. The fix is removed by washing the cells with Tris buffered saline (TBS) and the cells are permeabilized by incubation in TBS with 0.5% triton X-100 for 30 minutes at room temperature. Triton is removed by washing the cells with TBS.
4. Cells are stained with H5 monoclonal antibody and nuclei are stained with Hoechst dye 33342: Block cells by incubating in TBS with 1% Bovine serum albumin (BSA) for one hour at room temperature. Incubate primary H5 Ab (1/250) overnight at 4 degrees in PBS with 1% BSA and 0.1% Tween-20. The next day wash cells with TBS. Add secondary antibody, anti-IgM labeled with cy5 (1/450), and Hoecsht dye 33342 (10 μg/ml) in TBS with 1% BSA and incubate one hour at room temperature. Wash cells with PBS.
5. Measure staining using the In-cell Analyzer system from GE Healthcare. Nuclei were located using the Hoecsht 33342 dye signal and H5 Antibody staining was quantified by measuring cy5 label. Nuclear intensity of H5 staining was plotted against the log of compound concentration for each compound and IC-50 values were calculated using the spotfire IC-50 calculator and confirmed by visual analysis.

The target in test [2] is T1, CDK9/cyclinT1 (Homo sapiens, UniProt P50750).
T1 construct: purchased Millipore
T1 sequence (P50750 whole entry): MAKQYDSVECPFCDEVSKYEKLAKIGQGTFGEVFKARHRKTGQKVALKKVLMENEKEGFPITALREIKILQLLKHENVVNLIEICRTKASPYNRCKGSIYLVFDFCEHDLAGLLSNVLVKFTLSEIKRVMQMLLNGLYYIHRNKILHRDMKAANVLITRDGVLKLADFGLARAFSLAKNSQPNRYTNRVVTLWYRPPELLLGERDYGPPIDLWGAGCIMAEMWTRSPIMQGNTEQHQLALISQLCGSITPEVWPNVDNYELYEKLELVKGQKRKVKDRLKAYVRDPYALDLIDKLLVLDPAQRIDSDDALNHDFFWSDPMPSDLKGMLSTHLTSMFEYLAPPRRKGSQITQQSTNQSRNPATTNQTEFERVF
T1 sequence (O60563 whole entry partner): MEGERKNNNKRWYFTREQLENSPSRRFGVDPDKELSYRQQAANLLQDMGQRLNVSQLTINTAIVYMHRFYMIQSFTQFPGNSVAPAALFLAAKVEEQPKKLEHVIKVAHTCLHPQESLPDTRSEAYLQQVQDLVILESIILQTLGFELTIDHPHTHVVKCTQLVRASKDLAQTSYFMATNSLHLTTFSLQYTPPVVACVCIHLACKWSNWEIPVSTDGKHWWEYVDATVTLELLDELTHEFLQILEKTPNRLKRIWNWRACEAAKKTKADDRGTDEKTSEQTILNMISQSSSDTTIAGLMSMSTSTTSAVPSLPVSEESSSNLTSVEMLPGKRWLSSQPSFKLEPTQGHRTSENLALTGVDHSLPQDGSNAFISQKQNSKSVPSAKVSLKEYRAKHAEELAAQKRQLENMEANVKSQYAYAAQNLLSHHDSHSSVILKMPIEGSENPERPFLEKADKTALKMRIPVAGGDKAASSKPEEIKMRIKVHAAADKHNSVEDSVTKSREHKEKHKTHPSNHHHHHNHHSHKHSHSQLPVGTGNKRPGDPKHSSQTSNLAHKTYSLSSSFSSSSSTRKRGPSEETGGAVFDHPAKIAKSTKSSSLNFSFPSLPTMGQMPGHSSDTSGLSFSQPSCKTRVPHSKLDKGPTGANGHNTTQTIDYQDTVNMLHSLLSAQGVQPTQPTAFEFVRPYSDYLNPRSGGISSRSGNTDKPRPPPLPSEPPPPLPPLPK
The test can be described thus: CDK9/cyclinT1 IMAP fluorescence polarization kinase assay. It counts as biochemical. The following applies: 6 μM ATP, two hours at room temperature. How it is done: (§1) Kinase assays were performed on recombinant purified enzymes using the non-radioactive IMAP fluorescence polarization assay format.
(§2) Compound stocks were prepared and diluted in DMSO and were added to kinase reactions at a 1/100 dilution for a final concentration of 1% DMSO. The components were added together to final concentrations listed in the tables below and incubated for two hours at room temperature.
(§3) The reactions were stopped by addition of stop solution.
(§4) CDK9/CDK1/CDK7: final stop concentration is 1× Developer buffer (85% A/15% B), IMAP beads 1/400
(§5) The samples were allowed to incubate for one more hour at room temperature and then the fluorescence polarization was measured. The plate normalized millipolarization (mP) values were plotted against the log of compound concentration for each compound and IC50 values were calculated using the spotfire IC50 calculator and confirmed by visual analysis.
(Polarisation of emitted light reports the rotation of a fluorescent probe.)

Test [3] deals with T2, CDK1/cyclinB (Homo sapiens, UniProt P06493).
T2 construct: purchased Millipore
T2 sequence (P06493 whole entry): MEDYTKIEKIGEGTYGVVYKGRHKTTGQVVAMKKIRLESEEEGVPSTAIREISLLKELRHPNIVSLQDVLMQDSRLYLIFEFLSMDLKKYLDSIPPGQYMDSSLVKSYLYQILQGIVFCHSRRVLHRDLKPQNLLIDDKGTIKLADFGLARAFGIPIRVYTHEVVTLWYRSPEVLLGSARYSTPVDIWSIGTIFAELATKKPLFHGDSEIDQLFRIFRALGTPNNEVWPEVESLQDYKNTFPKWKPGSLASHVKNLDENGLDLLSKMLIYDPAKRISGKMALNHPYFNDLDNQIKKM
T2 sequence (P14635 whole entry partner): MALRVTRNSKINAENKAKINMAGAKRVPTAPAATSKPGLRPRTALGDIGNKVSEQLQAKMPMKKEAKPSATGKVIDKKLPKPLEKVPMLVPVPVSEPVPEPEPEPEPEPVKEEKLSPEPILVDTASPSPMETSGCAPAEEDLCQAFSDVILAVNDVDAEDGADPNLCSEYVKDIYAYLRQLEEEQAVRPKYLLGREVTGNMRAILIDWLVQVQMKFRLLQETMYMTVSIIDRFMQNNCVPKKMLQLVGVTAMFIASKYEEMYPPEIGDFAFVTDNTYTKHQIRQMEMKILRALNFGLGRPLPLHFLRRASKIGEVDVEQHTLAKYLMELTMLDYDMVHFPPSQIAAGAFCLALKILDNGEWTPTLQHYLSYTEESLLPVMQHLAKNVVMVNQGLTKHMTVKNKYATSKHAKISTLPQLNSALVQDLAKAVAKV
As to the kind of experiment: CDK1/cyclinB IMAP fluorescence polarization kinase assay. It counts as biochemical. Conditions: 52 μM ATP, two hours at room temperature. The protocol:
as §1, §2, §3, §4, §5

In test [4] the target is T3, CDK2/cyclinA (Homo sapiens, UniProt P24941).
T3 construct: purchased Millipore
The test can be described thus: CDK2/cyclinA IMAP fluorescence polarization kinase assay. It counts as biochemical. The following applies: 4.68 μM ATP, two hours at room temperature. How it is done:
as §1, §2, §3
CDK2: final stop concentration is 1× Developer buffer (100% A), IMAP beads 1/400
as §5

In test [5] the target is T4, CDK7/cyclinH/MAT1 (Homo sapiens, UniProt P50613).
T4 construct: purchased Millipore
T4 sequence (P50613 whole entry): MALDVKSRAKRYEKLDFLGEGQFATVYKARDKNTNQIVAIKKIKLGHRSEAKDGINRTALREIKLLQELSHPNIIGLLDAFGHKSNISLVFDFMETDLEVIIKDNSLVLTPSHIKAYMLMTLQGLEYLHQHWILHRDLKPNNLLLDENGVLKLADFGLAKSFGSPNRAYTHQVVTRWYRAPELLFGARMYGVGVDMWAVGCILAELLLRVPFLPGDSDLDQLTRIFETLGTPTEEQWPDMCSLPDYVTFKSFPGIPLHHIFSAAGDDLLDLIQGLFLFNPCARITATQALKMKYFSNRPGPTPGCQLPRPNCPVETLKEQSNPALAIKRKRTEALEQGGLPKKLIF
T4 sequence (P51946 whole entry partner): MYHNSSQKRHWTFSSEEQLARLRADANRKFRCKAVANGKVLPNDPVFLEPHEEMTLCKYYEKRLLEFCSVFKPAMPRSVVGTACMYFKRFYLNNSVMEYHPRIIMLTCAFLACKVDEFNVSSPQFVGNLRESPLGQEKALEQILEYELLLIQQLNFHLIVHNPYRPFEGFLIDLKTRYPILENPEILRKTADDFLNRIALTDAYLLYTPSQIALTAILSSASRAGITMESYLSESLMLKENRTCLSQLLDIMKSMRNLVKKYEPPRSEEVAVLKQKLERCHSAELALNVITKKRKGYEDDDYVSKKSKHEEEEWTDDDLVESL
T4 sequence (P51948 whole entry partner): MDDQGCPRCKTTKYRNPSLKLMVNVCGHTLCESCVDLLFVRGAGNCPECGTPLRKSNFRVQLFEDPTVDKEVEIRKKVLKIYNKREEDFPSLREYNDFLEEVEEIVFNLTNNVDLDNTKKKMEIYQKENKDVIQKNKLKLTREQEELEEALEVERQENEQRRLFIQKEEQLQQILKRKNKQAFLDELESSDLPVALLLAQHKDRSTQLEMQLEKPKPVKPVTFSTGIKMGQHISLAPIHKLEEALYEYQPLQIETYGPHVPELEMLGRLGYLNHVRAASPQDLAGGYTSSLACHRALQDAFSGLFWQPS
As to the kind of experiment: CDK7/cyclinH/Mat1 IMAP fluorescence polarization kinase assay. It counts as biochemical. The following applies: 8.09 μM ATP, two hours at room temperature. The protocol:
as §1, §2, §3, §4, §5

In test [6] the target is CDK4 (Homo sapiens, UniProt P11802). As to the kind of experiment: CDK4 kinase assay (IMAP fluorescence polarization). It counts as biochemical. How it is done: as §1, §2, §5
CDK4, sequence (P11802 whole entry, species assumed): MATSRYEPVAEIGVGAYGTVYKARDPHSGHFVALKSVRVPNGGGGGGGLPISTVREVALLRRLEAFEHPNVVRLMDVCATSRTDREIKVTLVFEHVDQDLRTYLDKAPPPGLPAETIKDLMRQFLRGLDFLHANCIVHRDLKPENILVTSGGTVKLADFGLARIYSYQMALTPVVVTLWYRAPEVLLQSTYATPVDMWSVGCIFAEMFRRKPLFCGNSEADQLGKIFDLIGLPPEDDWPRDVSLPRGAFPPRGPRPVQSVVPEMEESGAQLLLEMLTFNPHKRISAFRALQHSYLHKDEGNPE
CDK4, sequence (P24385 whole entry partner, species assumed): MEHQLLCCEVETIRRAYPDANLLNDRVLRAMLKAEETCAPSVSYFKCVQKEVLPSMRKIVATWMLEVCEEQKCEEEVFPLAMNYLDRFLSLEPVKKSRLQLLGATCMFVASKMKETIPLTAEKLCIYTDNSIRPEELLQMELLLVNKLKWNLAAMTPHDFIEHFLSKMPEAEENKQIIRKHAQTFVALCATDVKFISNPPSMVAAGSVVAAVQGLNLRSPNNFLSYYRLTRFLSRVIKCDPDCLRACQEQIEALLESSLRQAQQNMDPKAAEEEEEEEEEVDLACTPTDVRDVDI
For test [7], the target named is CDK5 (Homo sapiens, UniProt Q00535). The test can be described thus: CDK5 kinase assay (IMAP fluorescence polarization). It counts as biochemical. The protocol:
as §1, §2, §5

The subject of test [8] is neointima formation. Conditions: rats; cited from earlier work.

As a reminder, the IC50 is the concentration needed to halve the response being measured. Low values mean greater potency, high ones weaker potency.

The structures appear in SMILES notation.

CDK5, sequence (Q00535 whole entry, species assumed): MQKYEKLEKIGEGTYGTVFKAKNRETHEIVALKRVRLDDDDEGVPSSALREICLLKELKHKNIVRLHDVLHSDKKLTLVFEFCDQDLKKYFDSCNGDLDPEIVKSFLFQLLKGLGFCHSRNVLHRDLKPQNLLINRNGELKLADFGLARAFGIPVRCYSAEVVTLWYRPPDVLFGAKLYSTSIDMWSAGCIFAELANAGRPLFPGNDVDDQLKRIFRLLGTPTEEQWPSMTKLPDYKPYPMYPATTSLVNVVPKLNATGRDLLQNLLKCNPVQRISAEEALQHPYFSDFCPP
CDK5, sequence (Q15078 whole entry partner, species assumed): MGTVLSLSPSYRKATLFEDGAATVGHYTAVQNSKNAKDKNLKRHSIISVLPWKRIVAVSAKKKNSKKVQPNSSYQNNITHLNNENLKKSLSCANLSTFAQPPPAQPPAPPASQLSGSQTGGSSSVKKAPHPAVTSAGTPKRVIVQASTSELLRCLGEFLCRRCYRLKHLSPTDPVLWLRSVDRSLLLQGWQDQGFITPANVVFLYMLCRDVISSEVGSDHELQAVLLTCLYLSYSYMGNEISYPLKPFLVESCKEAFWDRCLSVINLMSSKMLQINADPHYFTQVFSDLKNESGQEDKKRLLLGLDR

Regarding `Clc1cccc(Nc2nccc(-c3cccc4c3ccn4CCN3CCOCC3)n2)c1` [Compound 9, (3-Chloro-phenyl)-{4-[1-(2-morpholin-4-yl-ethyl)-1H-indol-4-yl]-pyrimidin-2-yl}-amine], the IC50 was 15 to 50 µM in test [1], below 5 µM in test [2], above 50 µM in test [3] and 5 to 15 µM in test [4].

Take `CCNC(=O)Cn1ccc2c(-c3ccnc(Nc4cccc(Cl)c4)n3)cccc21` [Compound 13, 2-{4-[2-(3-Chloro-phenylamino)-pyrimidin-4-yl]-indol-1-yl}-N-ethyl-acetamide]: the half-maximal inhibitory concentration (IC50) in test [1] was below 5 µM; in test [2], below 5 µM; in test [3], above 50 µM; in test [5], above 50 µM.

As to `Cc1cnc(Nc2cccc(S(C)(=O)=O)c2)nc1-c1cccc2[nH]ccc12` [Compound 31, [4-(1H-Indol-4-yl)-5-methyl-pyrimidin-2-yl]-(3-methanesulfonyl-phenyl)-amine], the half-maximal inhibitory concentration (IC50) in test [1] was below 5 µM; in test [6], 5 to 15 µM; in test [7], below 5 µM; in test [2] it was below 5 µM; in test [3], below 5 µM; in test [4], below 5 µM. The compound further came in with an IC50 in test [5] below 5 µM.

With `COc1ccc(CNc2nc(N(CCO)CCO)nc3c2ncn3C(C)C)cc1` [CVT-313], the “inhibition of neointima formation” value in test [8] is on record as “greater than 80%”.

Take `Cc1ccc2[nH]ccc2c1-c1ccnc(Nc2cccc(S(C)(=O)=O)c2)n1` [Compound 35, (3-Methanesulfonyl-phenyl)-[4-(5-methyl-1H-indol-4-yl)-pyrimidin-2-yl]-amine]: the IC50 in test [6] is 5 to 15 µM; in test [7], below 5 µM; in test [2] it was below 5 µM; in test [3], below 5 µM; in test [4] it was below 5 µM.

`CS(=O)(=O)c1cccc(Nc2nccc(-c3cccc4[nH]ccc34)n2)c1` [Compound 2, [4-(1H-Indol-4-yl)-pyrimidin-2-yl]-(3-methanesulfonyl-phenyl)-amine]: the IC50 in test [1], in test [6], in test [7], in test [2], in test [3] and in test [4] was below 5 µM in each case. The compound further returned an IC50 in test [5] below 5 µM.

Consider `Clc1cccc(Nc2nccc(-c3cccc4[nH]ccc34)n2)c1` [Compound 1, (3-Chloro-phenyl)-[4-(1H-indol-4-yl)-pyrimidin-2-yl]-amine], for which the IC50 in test [1] was below 5 µM; in test [6], 5 to 15 µM; in test [7] it was below 5 µM; in test [2] it was below 5 µM; in test [3], below 5 µM; in test [5], above 50 µM.

Turning to `Clc1cccc(Nc2nccc(-c3cccc4c3ccn4Cc3ccccc3)n2)c1` [Compound 6, [4-(1-Benzyl-1H-indol-4-yl)-pyrimidin-2-yl]-(3-chloro-phenyl)-amine], the figures for the IC50 in test [2], in test [3] and in test [4] were below 5 µM, above 50 µM and above 50 µM, respectively.

Turning to `Cc1cnc(Nc2cccc(S(N)(=O)=O)c2)nc1-c1cccc2[nH]ccc12` [Compound 32, 3-[4-(1H-Indol-4-yl)-5-methyl-pyrimidin-2-ylamino]-benzenesulfonamide], the IC50 in test [6], in test [7], in test [2], in test [3] and in test [4] was below 5 µM each time.
